The nature of this data set: photoluminescence quantum yield (fraction); solvent given as SMILES.
Where [1] appears, read: in c1cc(-c2cccc(-n3c4ccccc4c4ccccc43)c2)cc(-n2c3ccccc3c3ccccc32)c1.

In turn, `COc1c(/C=N/Nc2ccc(C#N)cc2)ccc2ccccc12` showed a photoluminescence quantum yield (in CO) of 0.16.

As for `Cc1ccc(C2=C3C=CC([Se]c4ccccc4)=[N+]3[B-](F)(F)n3c([Se]c4ccccc4)ccc32)cc1`, the photoluminescence quantum yield (in C1CCOC1) came to 0.56.

Consider `CC(=O)c1c2c(cc3c(N(C)C)cccc13)CCC2`, for which the photoluminescence quantum yield is, setting by setting: (in C1CCCCC1) 0.28; (in C1CCOC1) 0.39; (in C1COCCO1) 0.44; (in CC#N) 0.23; (in CCO) 0.01; (in CS(C)=O) 0.48. The photoluminescence quantum yield was found to be 0.47 (in Cc1ccccc1), 0.4 (in ClC(Cl)Cl) and 0.6 (in ClCCl).

For the compound `c1ccc(-c2nc(-c3ccc(-c4nc(-c5ccccc5)c(-c5ccccc5)o4)cc3)oc2-c2ccccc2)cc1`, the photoluminescence quantum yield (in C1COCCO1) worked out at 0.63.

As for `Nc1nc2c([nH]c(=O)n2[C@H]2C[C@H](O)[C@@H](CO)O2)c(=O)[nH]1`, under “in O”, the photoluminescence quantum yield came to 0.00013.

`c1cc2ccc3ccc(-c4ccc(-c5nnc(-c6ccc(-c7nnc(-c8ccc(-c9ccc%10ccc%11cccc%12ccc9c%10c%11%12)s8)o7)cc6)o5)s4)c4ccc(c1)c2c34`: the photoluminescence quantum yield (in ClC(Cl)Cl) stood at 0.06.

Consider `c1ccc(-c2nc(-c3nc(-c4ccccc4)c(-c4ccccc4)o3)oc2-c2ccccc2)cc1`, for which, where the note is “in C1COCCO1”, the photoluminescence quantum yield came out at 0.57.

With `N#Cc1cc(-c2ccc(N3c4ccccc4Oc4ccccc43)cc2)c(-c2ccc(N3c4ccccc4Oc4ccccc43)cc2)cc1C#N`, the photoluminescence quantum yield was 0.42 (in Cc1ccccc1) and 0.77 under setting [1].

Turning to `N#Cc1cnc(-c2c3ccccc3c(-c3ccccc3)c3ccccc23)nc1`, the photoluminescence quantum yield reads like this: (in CCO) 0.04; (in ClCCl) 0.0001.

On to `CCCCCCN1C(=O)c2cccc3cc(/N=C\c4c[nH]c5c4ccc4ccccc45)cc(c23)C1=O`, for which the photoluminescence quantum yield (in ClC(Cl)Cl) was 0.073.

`CCCCn1c(=O)c2cc3ccc4cccc5ccc(c2c1=O)c3c45` registered a photoluminescence quantum yield (in ClC(Cl)Cl) of 0.52.

Regarding `c1ccc2c(c1)-c1ccccc1[Si]21c2ccccc2-c2cc3c(cc21)-c1ccccc1[Si]31c2ccccc2-c2ccccc21`, under “in ClCCl”, the photoluminescence quantum yield amounted to 0.59.

Under “in Cc1ccccc1”, `CCCC1=Cc2nc1ccc1[nH]c(cc1CCOC)c1nc(ccc3[nH]c2cc3CCC)C(CCOC)=C1` returned a photoluminescence quantum yield of 0.54.

For `COc1ccc2c(c1)-c1cc(OC)ccc1C2=O`, the photoluminescence quantum yield runs as follows: (in C1CCCCC1) 0.0028; (in CC#N) 0.028; (in CCO) 0.002.

`O=C1[C@@H]2[C@H](C(=O)N1c1ccc3cc4ccccc4cc3c1)[C@@H]1C=C[C@H]2C1` had a photoluminescence quantum yield (in ClC(Cl)Cl) of 0.24.

Turning to `CC(C)(C)c1cc(-c2c3cc(c(-c4cc(C(C)(C)C)cc(C(C)(C)C)c4)c4ccc([nH]4)c(-c4ccc(Br)cc4)c4nc(c(-c5ccc(Br)cc5)c5ccc2[nH]5)C=C4)N=C3)cc(C(C)(C)C)c1`, for the setting “in ClCCl”, the photoluminescence quantum yield came to 0.0127.

In turn, `COc1ccccc1-n1nc(C#N)c(N2CCCC2)n1` came in with a photoluminescence quantum yield (in CC#N) of 0.456.

As for `C[Si](C)(C)[Si](C)(C)c1ccc2cc3ccccc3cc2c1`, the photoluminescence quantum yield is, setting by setting: (in C1CCCCC1) 0.22; (in CC#N) 0.08.

In turn, `COc1cccc2c1C(=O)c1ccccc1-2` registered a photoluminescence quantum yield (in CC#N) of 0.0073; a photoluminescence quantum yield (in CC(C)O) of 0.029; a photoluminescence quantum yield (in CCCCO) of 0.023; a photoluminescence quantum yield (in CCCO) of 0.021; a photoluminescence quantum yield (in CCO) of 0.02; a photoluminescence quantum yield (in CO) of 0.011.

`C[Si](C)(C)c1ccc(-c2ccc(-c3ccc(-c4ccc(-c5ccc([Si](C)(C)C)cc5)cc4)c4nsnc34)cc2)cc1` came in with a photoluminescence quantum yield (in C1CCOC1) of 0.84.

As for `C(S/C=C/c1ccc(/C=C/SC=C(c2ccccc2)c2ccccc2)cc1)=C(c1ccccc1)c1ccccc1`, the photoluminescence quantum yield (in ClCCl) amounted to 0.058.

As for `CCC1=C(C)C2=Cc3cc(I)cn3[B-](F)(F)[N+]2=C1C`, the photoluminescence quantum yield was 0.113 (in C1CCCCC1); 0.063 (in CC(C)=O); 0.07 (in CCO); 0.078 (in CCOC(C)=O); 0.069 (in CO); 0.05 (in OCC(F)(F)F).

Regarding `Cn1cc(-c2nc3ccccc3nc2/C=C/N2CCCC2)c2ccccc21`, the photoluminescence quantum yield runs as follows: (in C1CCCCC1) 0.126; (in C1CCOC1) 0.444; (in CC#N) 0.43; (in CC(C)=O) 0.456; (in CCO) 0.048; (in CO) 0.012. Moreover, the photoluminescence quantum yield runs as follows: (in CS(C)=O) 0.496; (in Cc1ccccc1) 0.375; (in ClCCl) 0.579.

In the case of `CN(C)c1ccc(C#Cc2cc(C#Cc3ccc(C(F)(F)F)cc3)c3ccc4c(C#Cc5ccc(C(F)(F)F)cc5)cc(C#Cc5ccc(N(C)C)cc5)c5ccc2c3c54)cc1`, the photoluminescence quantum yield (in ClCCl) came to 0.42.

Regarding `Oc1ccccc1-c1nc2c3cccnc3c3ncccc3c2n1-c1ccccc1`, under “in Cc1ccccc1”, the photoluminescence quantum yield turned out to be 0.001.

For `Nc1ccccc1C(=O)O`, the photoluminescence quantum yield came out at 0.29 (in C1CCCCC1); 0.56 (in CC#N); 0.31 (in CC(C)=O); 0.59 (in CCO); 0.64 (in CS(C)=O); 0.6 (in O). Besides, the photoluminescence quantum yield was 0.27 (in OCC(F)(F)F) and 0.39 (in c1ccccc1).

As for `Oc1ccc2ncccc2c1`, the photoluminescence quantum yield reads like this: (in CC#N) 0.088; (in CCCC#N) 0.086; (in CO) 0.107; (in Cc1ccccc1) 0.008; (in ClCCl) 0.043.

In the case of `N#Cc1cccc(-c2pc3ccccc3s2)c1` (stereo not given), the photoluminescence quantum yield (in CC#N) worked out at 0.015.

As to `O=C(c1ccncc1)c1ccc(-n2c3ccc(-n4c5ccccc5c5ccccc54)cc3c3cc(-n4c5ccccc5c5ccccc54)ccc32)cc1`, the photoluminescence quantum yield runs as follows: (in Cc1ccccc1) 0.243; under setting [1], 0.96.

For the compound `N#Cc1c(-n2c3ccccc3c3cc(Br)ccc32)c(-n2c3ccccc3c3cc(Br)ccc32)c(C#N)c(-n2c3ccccc3c3cc(Br)ccc32)c1-n1c2ccccc2c2cc(Br)ccc21`, for the setting “in Cc1ccccc1”, the photoluminescence quantum yield was 0.53.

Turning to `O=C([O-])c1cc2c(ccc3ccccc32)oc1=O`, the photoluminescence quantum yield (in O) turned out to be 0.24.

On to `COc1ccc(-c2c(-c3ccc(OC)cc3)c3c4c(cccc4c2-c2ccccc2)C(=O)c2ccccc2-3)cc1`, for which the photoluminescence quantum yield by setting is: (in CC#N) 0.55; (in CO) 0.05.

`O=C(O)c1ccccc1Nc1cccc(C(F)(F)F)c1` yielded a photoluminescence quantum yield (in C1CCCCC1) of 0.016; a photoluminescence quantum yield (in C1CCOC1) of 0.016; a photoluminescence quantum yield (in C1COCCO1) of 0.026; a photoluminescence quantum yield (in CC#N) of 0.004; a photoluminescence quantum yield (in CCOC(C)=O) of 0.014; a photoluminescence quantum yield (in CN(C)C=O) of 0.006. In addition, the photoluminescence quantum yield is, setting by setting: (in CO) 0.001; (in ClC(Cl)Cl) 0.022.

For the compound `c1csc(-c2ccc(-c3ccc(-c4cccs4)s3)s2)c1`, the photoluminescence quantum yield amounted to 0.27 (in CCC(C)C) and 0.16 (in ClCCl).

Take `F[B-]1(F)n2c(-c3ccccc3)cc(-c3ccccc3)c2N=C2C(c3ccccc3)=CC(c3ccccc3)=[N+]21`: the photoluminescence quantum yield by setting is: (in CC#N) 0.22; (in ClC(Cl)Cl) 0.34.

As to `Nc1ccc2c(c1)-c1ccccc1C2=O`, the photoluminescence quantum yield reads like this: (in C1CCCCC1) 0.006; (in CC#N) 0.043; (in CCO) 0.0033; (in c1ccccc1) 0.13.

`CC(C)c1cc(C(C)C)c(B2c3cc(-n4c5ccc(C(C)(C)C)cc5c5cc(C(C)(C)C)ccc54)ccc3N(c3ccccc3)c3ccc(-n4c5ccc(C(C)(C)C)cc5c5cc(C(C)(C)C)ccc54)cc32)c(C(C)C)c1` returned a photoluminescence quantum yield under setting [1] of 0.98.

As to `Cc1ccc(-c2nc(-c3cccc(C#N)c3)[nH]c2-c2ccc(C)cc2)cc1`, the photoluminescence quantum yield (in CO) is 0.17.

For the compound `C(#Cc1ccccc1)C(C#Cc1ccccc1)=Cc1cccc(C=C(C#Cc2ccccc2)C#Cc2ccccc2)c1`, the photoluminescence quantum yield (in ClC(Cl)Cl) was found to be 0.06.

`CC1(C)C(/C=C/C2=C(Oc3ccc(CCN=C=S)cc3Cl)C(=C/C=C3/N(CCCS(=O)(=O)[O-])c4ccccc4C3(C)C)/CCC2)=[N+](CCCS(=O)(=O)[O-])c2ccccc21` registered a photoluminescence quantum yield (in CO) of 0.14.

In turn, `COc1ccc(-c2c3ccccc3c(C#Cc3ccccc3)c3ccccc23)cc1` came in with a photoluminescence quantum yield (in ClCCl) of 0.51.

Regarding `CC(C)(C)C1CCC(=CS/C=C/c2ccc(/C=C/SC=C3CCC(C(C)(C)C)CC3)cc2)CC1` (stereo not given), the photoluminescence quantum yield (in ClCCl) worked out at 0.031.

As for `CCCCN(CCCC)c1ccc(C#Cc2cc(C#Cc3ccc(C#N)cc3)c(C#Cc3ccc(C#N)cc3)cc2C#Cc2ccc(N(CCCC)CCCC)cc2)cc1`, the photoluminescence quantum yield (in ClCCl) amounted to 0.26.

Regarding `Nc1ccc2c(c1)Cc1ccccc1-2`, the photoluminescence quantum yield stood at 0.74 (in C1CCCCC1); 0.73 (in C1COCCO1); 0.52 (in CC#N); 0.84 (in CO); 0.2 (in O).

`F[B-]1(F)OC(c2ccc3c(c2)Cc2ccccc2-3)=CC(c2ccccc2)=[O+]1` came in with a photoluminescence quantum yield (in CC#N) of 0.96.

With `CCOC(=O)C1=CN(c2ccccc2)C=C(C(=O)OCC)C1c1ccccc1`, the photoluminescence quantum yield worked out at 0.51 (in C1CCOC1) and 0.44 (in CO).

For `CCCN1c2ccccc2Sc2cc(/C=C\c3cc(=O)oc4c(O)c(O)ccc34)ccc21`, the photoluminescence quantum yield (in ClC(Cl)Cl) was found to be 0.37.

As to `Cc1cc(N2c3ccccc3C(C)(C)c3ccccc32)ccc1-c1ncnc(-c2ccc(N3c4ccccc4C(C)(C)c4ccccc43)cc2C)c1C`, the photoluminescence quantum yield (in O=P(c1ccccc1)(c1ccccc1)c1ccccc1Oc1ccccc1P(=O)(c1ccccc1)c1ccccc1) came to 0.47.

As to `c1ccc(CO[Si]23n4c5c6ccccc6c4/N=C4N=C(/N=c6/c7ccccc7c(n62)=c2c6ccccc6c(n23)=N5)c2ccccc2\4)cc1` (stereo not given), the photoluminescence quantum yield (in CN(C)C=O) was 0.24.

These data come from the Deep4Chem optical property database.
